From patent publication US8188085B2, “Antifungal agents” (Merck Sharp & Dohme Corp., priority 2008, dated 2012)

Target: glucan synthase (GS) prepared from Candida albicans MY1055 (Candida albicans, UniProt O13428)
Assay: Glucan synthase inhibition (polymerization assay, 96-well)
Format: biochemical
Conditions: GS from C. albicans MY1055, 60 min incubation at 22° C.; for IC50: read-out: Candida Albicans GS IC50 (converted)
Experimental: The in vitro evaluation of glucan synthase inhibitory activity of compounds was measured in a polymerization assay in 96-well format. Each well contained 100 μL of ^3H-UDPG at 0.5 mM (6000 to 8000 dpm/nmol), 50 mM HEPES pH 7.5 (Sigma), 10% w/v glycerol (Sigma), 1.5 mg/mL bovine serum albumin (Sigma A 9647. Lot 44H0190), 25 mM KF (Fisher), 1 mM EDTA (Gibco ULTRAPURE), 25 μM GTP-γ-S, enzyme sufficient to give 3 to 6 nmoles incorporation during the 60 min incubation at 22° C., and test compound added from wells in 3-fold serial dilutions in 100% DMSO (1 μL/well). The reaction was stopped by the addition of 100 μL of 20% trichloroacetic acid. Plates were chilled for a minimum of 10 min, and precipitated glucan collected by filtration on GF/C plates (Packard UNIFILTER®-96), washed with 5 cycles of water (about 1 mL/well each cycle) using a Packard FILTERMATE HARVESTER. 40 μL/well scintillation fluid (Packard ULTIMA GOLD TM-XR) was added and the sealed plates counted in a WALLAC BETA counter in top-counting mode at an efficiency of approximately 40%.
Stock solutions were stored at 10 mg/mL in DMSO at −20° C. For each new enzyme preparation, the initial titration performed started at 1 mg/mL, which was prepared by making a 10-fold dilution in DMSO (5 μL to 50 μL). 40 μL of this stock was placed in column 12 of a round-bottomed 96-well microtiter plate. 40 μL DMSO was added to columns 1 to 11 in the same row and ten 3-fold serial dilutions performed, by transferring 20 μL from column 12 to column 11 etc., with 4 mixings before each transfer. No test compound was transferred to from column 2 to column 1. Duplicate aliquots of 1 μL of all 12 dilutions were then transferred to the side walls of a 96-well Bioblock 1.1 mL plate (Fisher brand) to create two rows.
Graphs of the primary data were created in PRISM software (the average of two determinations) using PRISM's curve fitting program (sigmoidal dose response non-linear regression). The amount of compound required to inhibit glucan synthase activity by 50% in this assay (IC50−ng/mL) was calculated.
Routine analysis was performed with glucan synthase (GS) prepared from Candida albicans MY1055 by the following procedure: MY1055 was grown in 10 liters YPD medium (10 g yeast extract, 20 g tryptone, 20 g glucose per liter) with vigorous shaking at 30° C., to early stationary phase. Cells were harvested by centrifugation, the pellet was washed and frozen at −70° C. until breakage. Thawed pellets were shaken with an equal volume of breakage buffer (50 mM HEPES pH 7.4, 10% glycerol, 1 mM EDTA, 1 mM PMSF, 1 mM DTT) and 4 times their weight of 0.5 mm acid washed glass beads for 2 hours at 4° C. Extent of breakage was assessed visually at 40× magnification. After low speed centrifugation to remove cell debris, the supernatant was centrifuged at 100,000×g for 60 min. to separate membranes plus ribosomes from cytoplasmic components. Membranes were further washed two additional times with breakage buffer using the same centrifugation conditions and finally suspended in breakage buffer at 25 to 30 mg/mL protein (Biorad) for storage at −70° C. Extraction of GS activity from membranes was performed at a protein concentration of 5 mg/mL in extraction buffer (50 mM NaPO4 pH 7.5, 0.1 M KCl, 0.1M Na citrate, 20% glycerol, 5 μM GTP-γ-S, 1 mM DTT, 1 mM PMSF, 3 μg/mL pepstatin) plus 0.25% W1 by gentle mixing at 4° C. for 60 min, followed by centrifugation at 100,000×g for 60 min. After centrifugation, clear supernatant was removed from a pellet consisting of a hard layer usually with small amounts of gelatinous unextracted membranes above it.
Trapping was initiated immediately by 5-fold dilution in trapping buffer (50 mM HEPES pH 7.5, 10 mM KF, 1 mM EDTA, 2 mg/mL BSA) plus 2.5 mM UDPG and 10 μM GTP-γ-S. After incubation at 25° C. for 60 to 90 minutes, glucan was harvested by low speed centrifugation (3,000×g, 10 min). […]

Chain of glucan synthase (GS) prepared from Candida albicans MY1055 (O13428 1-1897): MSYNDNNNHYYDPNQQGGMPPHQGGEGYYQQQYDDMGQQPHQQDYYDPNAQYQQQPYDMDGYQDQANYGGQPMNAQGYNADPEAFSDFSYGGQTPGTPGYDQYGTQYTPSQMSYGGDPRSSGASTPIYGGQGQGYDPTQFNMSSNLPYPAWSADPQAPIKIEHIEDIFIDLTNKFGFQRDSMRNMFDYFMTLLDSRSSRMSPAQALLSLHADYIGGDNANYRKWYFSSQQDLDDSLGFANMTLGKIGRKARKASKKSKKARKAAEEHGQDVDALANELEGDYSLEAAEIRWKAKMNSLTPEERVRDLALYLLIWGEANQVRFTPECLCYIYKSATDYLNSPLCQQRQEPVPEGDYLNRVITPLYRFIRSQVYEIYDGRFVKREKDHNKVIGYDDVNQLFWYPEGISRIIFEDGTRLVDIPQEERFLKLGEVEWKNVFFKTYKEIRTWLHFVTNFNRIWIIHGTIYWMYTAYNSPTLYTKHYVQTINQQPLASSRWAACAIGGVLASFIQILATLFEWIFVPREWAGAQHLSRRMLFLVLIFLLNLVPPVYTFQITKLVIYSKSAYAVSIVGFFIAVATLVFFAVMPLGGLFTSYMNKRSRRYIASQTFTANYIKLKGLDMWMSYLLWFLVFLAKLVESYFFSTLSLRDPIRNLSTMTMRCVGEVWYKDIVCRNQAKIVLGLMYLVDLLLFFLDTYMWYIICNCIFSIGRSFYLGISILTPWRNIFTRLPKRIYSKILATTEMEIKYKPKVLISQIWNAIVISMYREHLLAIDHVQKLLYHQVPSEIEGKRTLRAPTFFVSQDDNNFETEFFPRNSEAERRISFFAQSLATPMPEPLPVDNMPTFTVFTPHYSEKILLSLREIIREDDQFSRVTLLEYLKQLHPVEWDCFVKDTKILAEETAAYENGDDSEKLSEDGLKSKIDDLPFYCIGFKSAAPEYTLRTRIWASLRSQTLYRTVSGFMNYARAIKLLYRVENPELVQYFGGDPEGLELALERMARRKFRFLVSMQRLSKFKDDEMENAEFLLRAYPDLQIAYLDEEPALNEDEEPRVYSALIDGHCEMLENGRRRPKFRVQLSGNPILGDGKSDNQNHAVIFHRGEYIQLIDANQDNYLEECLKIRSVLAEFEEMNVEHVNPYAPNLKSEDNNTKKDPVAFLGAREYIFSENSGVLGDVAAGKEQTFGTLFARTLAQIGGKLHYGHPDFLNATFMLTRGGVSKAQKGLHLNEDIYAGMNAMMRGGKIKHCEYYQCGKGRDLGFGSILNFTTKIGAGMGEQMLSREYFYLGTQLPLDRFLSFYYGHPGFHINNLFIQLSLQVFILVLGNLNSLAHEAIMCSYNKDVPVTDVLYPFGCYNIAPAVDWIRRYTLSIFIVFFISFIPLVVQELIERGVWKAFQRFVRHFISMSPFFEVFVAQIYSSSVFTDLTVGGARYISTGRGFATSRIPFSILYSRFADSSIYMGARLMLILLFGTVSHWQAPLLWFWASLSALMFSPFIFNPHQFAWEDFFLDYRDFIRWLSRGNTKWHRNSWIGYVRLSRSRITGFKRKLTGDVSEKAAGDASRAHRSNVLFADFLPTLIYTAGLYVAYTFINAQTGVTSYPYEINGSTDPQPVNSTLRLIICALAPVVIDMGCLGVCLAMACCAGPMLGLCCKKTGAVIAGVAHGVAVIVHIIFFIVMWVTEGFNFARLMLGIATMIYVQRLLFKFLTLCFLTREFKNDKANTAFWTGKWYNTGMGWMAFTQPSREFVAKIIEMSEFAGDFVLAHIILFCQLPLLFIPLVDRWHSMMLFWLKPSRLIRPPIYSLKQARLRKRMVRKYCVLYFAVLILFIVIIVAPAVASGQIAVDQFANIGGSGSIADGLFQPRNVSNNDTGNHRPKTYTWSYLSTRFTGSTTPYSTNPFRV

| IC50 [nM] | SMILES | Candida Albicans GS IC50 [ng/mL] |
| --- | --- | --- |
| 0.376 | CC(C)[C@@H](C)[C@@]1(C)CC[C@]2(C)[C@H]3CC[C@@H]4[C@@]5(COC[C@@]4(C)[C@@H](OC[C@](C)(N)C(C)(C)C)[C@H](n4ncnc4-c4ccc(C6=NCCN6)cc4)C5)C3=CC[C@@]2(C)[C@@H]1C(=O)O [Example 268, (1S,4aR,6aS,7R,8R,8R,10aR,10bR,12aR,14R,15R)-15-[[(2R)-2-amino-2,3,3-trimethylbutyl]oxy]-14-[5-[4-(4,5-dihydro-1H-imidazol-2-yl)phenyl]-1H-1,2,4-triazol-1-yl]-8-[(1R)-1,2-dimethylpropyl]-1,6,6a,7,8,9,10,10a,10b,11,12,12a-dodecahydro-1,6a,8,10a-tetramethyl-4H-1,4a-propano-2H-phenanthro[1,2-c]pyran-7-carboxylic acid] | – |
| 8.5 | CC(C)[C@@H](C)[C@@]1(C)CC[C@]2(C)[C@H]3CC[C@@H]4[C@@]5(COC[C@@]4(C)[C@@H](OC[C@](C)(N)C(C)C)[C@H](n4ncnc4-n4cncn4)C5)C3=CC[C@@]2(C)[C@@H]1C(=O)O [Example 138, (1S,4aR,6aS,7R,8R,10aR,10bR,12aR,14R,15R)-15-[[(2R)-2-amino-2,3-dimethylbutyl]oxy]-14-[1,5′-bi-1H-1,2,4-triazol]-1′-yl-8-[(1R)-1,2-dimethylpropyl]-1,6,6a,7,8,9,10,10a,10b,11,12,12a-dodecahydro-1,6a,8,10a-tetramethyl-4H-1,4a-propano-2H-phenanthro[1,2-c]pyran-7-carboxylic acid] | – |
| 12.9 | CC(C)[C@@H](C)[C@@]1(C)CC[C@]2(C)[C@H]3CC[C@@H]4[C@@]5(COC[C@@]4(C)[C@@H](OC[C@](C)(N)C(C)C)[C@H](n4nc(N)nc4C(N)=O)C5)C3=CC[C@@]2(C)[C@@H]1C(=O)O [Example 119, (1S,4aR,6aS,7R,8R,10aR,10bR,12aR,14R,15R)-14-[3-amino-5-(aminocarbonyl)-1H-1,2,4-triazol-1-yl]-15-[[(2R)-2-amino-2,3-dimethylbutyl]oxy]-8-[(1R)-1,2-dimethylpropyl]-1,6,6a,7,8,9,10,10a,10b,11,12,12a-dodecahydro-1,6a,8,10a-tetramethyl-4H-1,4a-propano-2H-phenanthro[1,2-c]pyran-7-carboxylic acid] | – |
| 12 | CC(C)[C@@H](C)[C@@]1(C)CC[C@]2(C)[C@H]3CC[C@@H]4[C@@]5(COC[C@@]4(C)[C@@H](OC[C@@](C)(C(C)C)N(C)C)[C@H](n4cncn4)C5)C3=CC[C@@]2(C)[C@@H]1C(=O)O [Example 18, (1S,4aR,6aS,7R,8R,10aR,10bR,12aR,14R,15R)-15-[[(2R)-2-(dimethylamino)-2,3-dimethylbutyl]oxy]-8-[(1R)-1,2-dimethylpropyl]-14-(1H-1,2,4-triazol-1-yl)-1,6,6a,7,8,9,10,10a,10b,11,12,12a-dodecahydro-1,6a,8,10a-tetramethyl-4H-1,4a-propano-2H-phenanthro[1,2-c]pyran-7-carboxylic acid] | – |
| 1.34 | CC(C)[C@@H](C)[C@@]1(C)CC[C@]2(C)[C@H]3CC[C@@H]4[C@@]5(COC[C@@]4(C)[C@@H](OC[C@](C)(N)C(C)(C)C)[C@H](n4ncnc4-c4ccnc(N)c4)C5)C3=CC[C@@]2(C)[C@@H]1C(=O)O [Example 214, (1S,4aR,6aS,7R,8R,10aR,10bR,12aR,14R,15R)-14-[5-(2-amino-4-pyridinyl)-1H-1,2,4-triazol-1-yl]-15-[[(2R)-2-amino-2,3,3-trimethylbutyl]oxy]-8-[(1R)-1,2-dimethylpropyl]-1,6,6a,7,8,9,10,10a,10b,11,12,12a-dodecahydro-1,6a,8,10a-tetramethyl-4H-1,4a-propano-2H-phenanthro[1,2-c]pyran-7-carboxylic acid] | – |
| 1.07 | CC(C)[C@@H](C)[C@@]1(C)CC[C@]2(C)[C@H]3CC[C@@H]4[C@@]5(COC[C@@]4(C)[C@@H](OC[C@](C)(N)C(C)(C)C)[C@H](n4ncnc4-c4ccc(O)nc4)C5)C3=CC[C@@]2(C)[C@@H]1C(=O)O [Example 218, (1S,4aR,6aS,7R,8R,10aR,10bR,12aR,14R,15R)-15-[[(2R)-2-amino-2,3,3-trimethylbutyl]oxy]-8-[(1R)-1,2-dimethylpropyl]-14-[5-(6-hydroxy-3-pyridinyl)-1H-1,2,4-triazol-1-yl]-1,6,6a,7,8,9,10,10a,10b,11,12,12a-dodecahydro-1,6a,8,10a-tetramethyl-4H-1,4a-propano-2H-phenanthro[1,2-c]pyran-7-carboxylic acid] | – |
| 38.1 | CCNC(=O)c1ccnn1[C@@H]1C[C@@]23COC[C@](C)([C@@H]2CC[C@H]2C3=CC[C@@]3(C)[C@H](C(=O)O)[C@@](C)([C@H](C)C(C)C)CC[C@]23C)[C@H]1OC[C@](C)(N)C(C)C [Example 298, (1S,4aR,6aS,7R,8R,10aR,10bR,12aR,14R,15R)-15-[[(2R)-2-amino-2,3-dimethylbutyl]oxy]-8-[(1R)-1,2-dimethylpropyl]-14-[5-[(ethylamino)carbonyl]-1H-pyrazol-1-yl]-1,6,6a,7,8,9,10,10a,10b,11,12,12a-dodecahydro-1,6a,8,10a-tetramethyl-4H-1,4a-propano-2H-phenanthro[1,2-c]pyran-7-carboxylic acid] | – |
| – | CN[C@@](C)(CO[C@H]1[C@H](n2ncnc2I)C[C@@]23COC[C@]1(C)[C@@H]2CC[C@H]1C3=CC[C@@]2(C)[C@H](C(=O)O)[C@@](C)([C@H](C)C(C)C)CC[C@]12C)C(C)C (racemic) [Example 22, (1S,4aR,6aS,7R,8R,10aR,10bR,12aR,14R,1SR)-15-[[(2R)-2,3-dimethyl-2-(methylamino)butyl]oxy]-8-[(1R)-1,2-dimethylpropyl]-14-(5-iodo-1H-1,2,4-triazol-1-yl)-1,6,6a,7,8,9,10,10a,10b,11,12,12a-dodecahydro-1,6a,8,10a-tetramethyl-4H-1,4a-propano-2H-phenanthro[1,2-c]pyran-7-carboxylic acid] | 5 |
| 7.13 | CNC1(CO[C@H]2[C@H](n3ncnc3Cl)C[C@@]34COC[C@]2(C)[C@@H]3CC[C@H]2C4=CC[C@@]3(C)[C@H](C(=O)O)[C@@](C)([C@H](C)C(C)C)CC[C@]23C)CCOCC1 [Example 14, (1S,4aR,6aS,7R,8R,10aR,10bR,12aR,14R,15R)-14-(5-chloro-1H-1,2,4-triazol-1-yl)-8-[(1R)-1,2-dimethylpropyl]-15-[[tetrahydro-4-(methylamino)-2H-pyran-4-yl]methoxy]-1,6,6a,7,8,9,10,10a,10b,11,12,12a-dodecahydro-1,6a,8,10a-tetramethyl-4H-1,4a-propano-2H-phenanthro[1,2-c]pyran-7-carboxylic acid] | – |

| SMILES | IC50 [nM] | Candida Albicans GS IC50 [ng/mL] |
| --- | --- | --- |
| CNC(=O)c1ncnn1[C@@H]1C[C@@]23COC[C@](C)([C@@H]2CC[C@H]2C3=CC[C@@]3(C)[C@H](C(=O)O)[C@@](C)([C@H](C)C(C)C)CC[C@]23C)[C@H]1OCC1(N)CCOCC1 [Example 112, (1S,4aR,6aS,7R,8R,10aR,10bR,12aR,14R,15R)-15-[(4-aminotetrahydro-2H-pyran-4-yl)methoxy]-8-[(1R)-1,2-dimethylpropyl]-14-[5-[(methylamino)carbonyl]-1H-1,2,4-triazol-1-yl]-1,6,6a,7,8,9,10,10a,10b,11,12,12a-dodecahydro-1,6a,8,10a-tetramethyl-4H-1,4a-propano-2H-phenanthro[1,2-c]pyran-7-carboxylic acid] | 9.86 | – |
